Data on 25 compounds can be found in patent US11919888B2, “Neprilysin inhibitors” (THERAVANCE BIOPHARMA R&D IP, LLC, priority 2012, dated 2024).

For the assay, the target named is T1, human NEP (Homo sapiens, UniProt P08473).
T1 construct: purchased R&D Systems, Minneapolis, MN 1182-ZN
T1 sequence (P08473 52-750 limits assumed): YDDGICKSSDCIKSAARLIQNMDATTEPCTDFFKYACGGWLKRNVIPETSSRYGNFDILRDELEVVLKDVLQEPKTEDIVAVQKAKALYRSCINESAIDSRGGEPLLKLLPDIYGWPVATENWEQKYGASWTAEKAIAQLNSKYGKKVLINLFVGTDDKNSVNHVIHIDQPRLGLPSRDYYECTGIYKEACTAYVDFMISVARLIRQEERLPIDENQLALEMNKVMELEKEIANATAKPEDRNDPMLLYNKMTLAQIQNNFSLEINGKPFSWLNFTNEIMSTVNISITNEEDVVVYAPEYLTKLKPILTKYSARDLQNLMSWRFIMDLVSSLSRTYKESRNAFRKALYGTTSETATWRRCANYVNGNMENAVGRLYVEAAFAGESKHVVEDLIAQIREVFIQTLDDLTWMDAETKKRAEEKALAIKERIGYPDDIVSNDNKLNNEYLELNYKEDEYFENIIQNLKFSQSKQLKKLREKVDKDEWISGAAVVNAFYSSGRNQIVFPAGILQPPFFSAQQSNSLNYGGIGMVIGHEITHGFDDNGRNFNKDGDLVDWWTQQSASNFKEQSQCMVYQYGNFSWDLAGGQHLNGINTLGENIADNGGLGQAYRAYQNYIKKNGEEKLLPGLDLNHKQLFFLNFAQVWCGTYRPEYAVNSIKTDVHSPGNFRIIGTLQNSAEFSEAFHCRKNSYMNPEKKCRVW
Kind of assay: In vitro enzyme inhibition assay at human NEP (fluorogenic peptide substrate). It is filed as biochemical. The note with it: recombinant human NEP; 10 μM fluorogenic substrate Mca-D-Arg-Arg-Leu-Dap-(Dnp)-OH; 37° C.; 30 minute preincubation; read-out: pKi value at human NEP (converted). The method, then: In Vitro Assays for the Quantitation of Inhibitor Potencies (IC50) at Human and Rat NEP, and Human ACE
The inhibitory activities of compounds at human and rat neprilysin (EC 3.4.24.11; NEP) and human angiotensin converting enzyme (ACE) were determined using in vitro assays as described below.
Recombinant human NEP and recombinant human ACE were obtained commercially (R&D Systems, Minneapolis, MN, catalog numbers 1182-ZN and 929-ZN, respectively). The fluorogenic peptide substrate Mca-D-Arg-Arg-Leu-Dap-(Dnp)-OH (Medeiros et al. (1997) Braz. J. Med. Biol. Res. 30:1157-62; Anaspec, San Jose, CA) and Abz-Phe-Arg-Lys(Dnp)-Pro-OH (Araujo et al. (2000) Biochemistry 39:8519-8525; Bachem, Torrance, CA) were used in the NEP and ACE assays respectively.
The assays were performed in 384-well white opaque plates at 37° C. using the fluorogenic peptide substrates at a concentration of 10 μM in Assay Buffer (NEP: 50 mM HEPES, pH 7.5, 100 mM NaCl, 0.01% polyethylene glycol sorbitan monolaurate (Tween-20), 10 μM ZnSO4; ACE: 50 mM HEPES, pH 7.5, 100 mM NaCl, 0.01% Tween-20, 1 μM ZnSO4).
Test compounds were assayed over the range of concentrations from 10 μM to 20 pM. Test compounds were added to the enzymes and incubated for 30 minute at 37° C. prior to initiating the reaction by the addition of substrate. Reactions were terminated after 20 minutes of incubation at 37° C. by the addition of glacial acetic acid to a final concentration of 3.6% (v/v).
Plates were read on a fluorometer with excitation and emission wavelengths set to 320 nm and 405 nm, respectively. Inhibition constants were obtained by nonlinear regression of the data using the equation (GraphPad Software, Inc., San Diego, CA): ν=ν0/[1+(I/K′)] where ν is the reaction rate, ν0 is the uninhibited reaction rate, I is the inhibitor concentration and K′ is the apparent inhibition constant.
For the compound `C[C@@](CO)(C[C@@H](Cc1ccc(-c2ccccc2)cc1)NC(=O)c1cnn[nH]1)C(=O)O` [(2S,4R)-5-biphenyl-4-yl-2-hydroxymethyl-2-methyl-4-[(3H-[1,2,3]triazole-4-carbonyl)amino]-pentanoic acid, reference compound], the Ki is at most 1 nM.

As to `CC(=O)OC[C@](C)(C[C@@H](Cc1ccc(-c2ccccc2)cc1)NC(=O)c1cnn[nH]1)C(=O)O` [Example 1D, (2S,4R)-2-Acetoxymethyl-5-biphenyl-4-yl-2-methyl-4-[(3H-[1,2,3]triazole-4-carbonyl)amino]pentanoic Acid], the Ki was at most 1 nM. As for `CC(C)C(=O)OC[C@](C)(C[C@@H](Cc1ccc(-c2ccccc2)cc1)NC(=O)c1cnn[nH]1)C(=O)O` [Example 1E, (2S,4R)-5-Biphenyl-4-yl-2-isobutyryloxymethyl-2-methyl-4-[(3H-[1,2,3]triazole-4-carbonyl)amino]pentanoic Acid], the Ki is at most 1 nM.

With `CC(C)CC(=O)OC[C@](C)(C[C@@H](Cc1ccc(-c2ccccc2)cc1)NC(=O)c1cnn[nH]1)C(=O)O` [Example 1F, (2S,4R)-5-Biphenyl-4-yl-2-methyl-2-(3-methylbutyryloxymethyl)-4-[(3H-[1,2,3]triazole-4-carbonyl)amino]pentanoic Acid], the Ki is at most 1 nM. Under `CCOC[C@](C)(C[C@@H](Cc1ccc(-c2ccccc2)cc1)NC(=O)c1c[nH]nn1)C(=O)O` [Example 1I, (2S,4R)-5-Biphenyl-4-yl-2-ethoxymethyl-2-methyl-4-[(1H-[1,2,3]triazole-4-carbonyl)amino]pentanoic Acid] stands 1 to 3.16 nM; under `COC[C@](C)(C[C@@H](Cc1ccc(-c2ccccc2)cc1)NC(=O)c1c[nH]nn1)C(=O)O` [Example 1J, (2S,4R)-5-Biphenyl-4-yl-2-methoxymethyl-2-methyl-4-[(1H-[1,2,3]triazole-4-carbonyl)amino]pentanoic Acid], 1 to 3.16 nM; under `COc1ccccc1-c1ccc(C[C@H](C[C@@](C)(CO)C(=O)O)NC(=O)c2c[nH]nn2)cc1` [Example 2A, (2S,4R)-2-Hydroxymethyl-5-(2′-methoxybiphenyl-4-yl)-2-methyl-4-[(1H-[1,2,3]triazole-4-carbonyl)amino]pentanoic Acid], 1 to 3.16 nM.

Consider `C[C@@](CO)(C[C@@H](Cc1ccc(-c2ccccc2Cl)cc1)NC(=O)c1c[nH]nn1)C(=O)O` [Example 2B, (2S,4R)-5-(2′-Chlorobiphenyl-4-yl)-2-hydroxymethyl-2-methyl-4-[(1H-[1,2,3]triazole-4-carbonyl)amino]pentanoic Acid], for which the Ki is at most 1 nM. As to `Cc1ccccc1-c1ccc(C[C@H](C[C@@](C)(CO)C(=O)O)NC(=O)c2c[nH]nn2)cc1` [Example 2C, (2S,4R)-2-Hydroxymethyl-2-methyl-5-(2′-methylbiphenyl-4-yl)-4-[(1H-[1,2,3]triazole-4-carbonyl)amino]pentanoic Acid], the Ki is at most 1 nM. `C[C@@](CO)(C[C@@H](Cc1ccc(-c2cccc(Cl)c2)cc1)NC(=O)c1c[nH]nn1)C(=O)O` [Example 2D, (2S,4R)-5-(3′-Chlorobiphenyl-4-yl)-2-hydroxymethyl-2-methyl-4-[(1H-[1,2,3]triazole-4-carbonyl)amino]pentanoic Acid]: the Ki was at most 1 nM. The result for `C[C@@](CO)(C[C@@H](Cc1ccc(-c2cc(Cl)ccc2F)cc1)NC(=O)c1c[nH]nn1)C(=O)O` [Example 2E, (2S,4R)-5-(5′-Chloro-2′-fluorobiphenyl-4-yl)-2-hydroxymethyl-2-methyl-4-[(1H-[1,2,3]triazole-4-carbonyl)amino]pentanoic Acid] reads 1 to 3.16 nM; that for `C[C@@](CO)(C[C@@H](Cc1ccc(-c2cc(Cl)ccc2Cl)cc1)NC(=O)c1c[nH]nn1)C(=O)O` [Example 2F, (2S,4R)-5-(2′,5′-Dichlorobiphenyl-4-yl)-2-hydroxymethyl-2-methyl-4-[(1H-[1,2,3]triazole-4-carbonyl)amino]pentanoic Acid], at most 1 nM. The result for `Cc1ccc(Cl)cc1-c1ccc(C[C@H](C[C@@](C)(CO)C(=O)O)NC(=O)c2c[nH]nn2)cc1` [Example 2G, (2S,4R)-5-(5′-Chloro-2′-methylbiphenyl-4-yl)-2-hydroxymethyl-2-methyl-4-[(1H-[1,2,3]triazole-4-carbonyl)amino]pentanoic Acid] reads at most 1 nM. On to `C[C@@](CO)(C[C@@H](Cc1ccc(-c2cccc(C#N)c2)cc1)NC(=O)c1c[nH]nn1)C(=O)O` [Example 2H, (2S,4R)-5-(3′-Cyanobiphenyl-4-yl)-2-hydroxymethyl-2-methyl-4-[(1H-[1,2,3]triazole-4-carbonyl)amino]pentanoic Acid], for which the Ki was 3.16 to 10 nM.

`COC[C@](C)(C[C@@H](Cc1ccc(-c2cccc(Cl)c2)cc1)NC(=O)c1c[nH]nn1)C(=O)O` [Example 2J, (2S,4R)-5-(3′-Chlorobiphenyl-4-yl)-2-methoxymethyl-2-methyl-4-[(1H-[1,2,3]triazole-4-carbonyl)amino]pentanoic Acid]: the Ki was 1 to 3.16 nM. `CCOC[C@](C)(C[C@@H](Cc1ccc(-c2cccc(Cl)c2)cc1)NC(=O)c1cnn[nH]1)C(=O)O` [Example 2K, (2S,4R)-5-(3′-Chlorobiphenyl-4-yl)-2-ethoxymethyl-2-methyl-4-[(3H-[1,2,3]triazole-4-carbonyl)amino]pentanoic Acid]: the Ki was at most 1 nM. `C[C@@](COCCO)(C[C@@H](Cc1ccc(-c2cccc(Cl)c2)cc1)NC(=O)c1c[nH]nn1)C(=O)O` [Example 2L, (2S,4R)-5-(3′-Chlorobiphenyl-4-yl)-2-(2-hydroxyethoxymethyl)-2-methyl-4-[(1H-[1,2,3]triazole-4-carbonyl)amino]pentanoic Acid]: the Ki is at most 1 nM. Turning to `C[C@@](COCCCO)(C[C@@H](Cc1ccc(-c2cccc(Cl)c2)cc1)NC(=O)c1c[nH]nn1)C(=O)O` [Example 2M, (2S,4R)-5-(3′-Chlorobiphenyl-4-yl)-2-(3-hydroxypropoxymethyl)-2-methyl-4-[(1H-[1,2,3]triazole-4-carbonyl)amino]pentanoic Acid], the Ki is at most 1 nM. Regarding `COC[C@](C)(C[C@@H](Cc1ccc(-c2cc(Cl)ccc2F)cc1)NC(=O)c1c[nH]nn1)C(=O)O` [Example 2N, (2S,4R)-5-(5′-Chloro-2′-fluorobiphenyl-4-yl)-2-methoxymethyl-2-methyl-4-[(1H-[1,2,3]triazole-4-carbonyl)amino]pentanoic Acid], the Ki is at most 1 nM. The result for `CCOC[C@](C)(C[C@@H](Cc1ccc(-c2cc(Cl)ccc2F)cc1)NC(=O)c1c[nH]nn1)C(=O)O` [Example 2O, (2S,4R)-5-(5′-Chloro-2′-fluoro-biphenyl-4-yl)-2-ethoxymethyl-2-methyl-4-[(1H-[1,2,3]triazole-4-carbonyl)amino]pentanoic Acid] reads at most 1 nM; that for `C[C@@](COCCCO)(C[C@@H](Cc1ccc(-c2cc(Cl)ccc2F)cc1)NC(=O)c1cnn[nH]1)C(=O)O` [Example 2P, (2S,4R)-5-(5′-Chloro-2′-fluorobiphenyl-4-yl)-2-(3-hydroxypropoxymethyl)-2-methyl-4-[(3H-[1,2,3]triazole-4-carbonyl)amino]pentanoic Acid], at most 1 nM; that for `CCCCCOC[C@](C)(C[C@@H](Cc1ccc(-c2cc(Cl)ccc2F)cc1)NC(=O)c1cnn[nH]1)C(=O)O` [Example 2Q, (2S,4R)-5-(5′-Chloro-2′-fluorobiphenyl-4-yl)-2-methyl-2-pentyloxymethyl-4-[(3H-[1,2,3]triazole-4-carbonyl)amino]pentanoic Acid], 1 to 3.16 nM. As to `CC(C)OC[C@](C)(C[C@@H](Cc1ccc(-c2cc(Cl)ccc2F)cc1)NC(=O)c1cnn[nH]1)C(=O)O` [Example 2R, (2S,4R)-5-(5′-Chloro-2′-fluorobiphenyl-4-yl)-2-isopropoxymethyl-2-methvl-4-[(3H-[1,2,3]triazole-4-carbonyl)amino]pentanoic Acid], the Ki is at most 1 nM. The result for `C[C@@](COCCO)(C[C@@H](Cc1ccc(-c2cc(Cl)ccc2F)cc1)NC(=O)c1cnn[nH]1)C(=O)O` [Example 2S, (2S,4R)-5-(5′-Chloro-2′-fluorobiphenyl-4-yl)-2-(2-hydroxyethoxymethyl)-2-methyl-4-[(3H-[1,2,3]triazole-4-carbonyl)amino]pentanoic Acid] reads 3.16 to 10 nM; that for `COn1cc(C(=O)N[C@H](Cc2ccc(-c3cc(Cl)ccc3F)cc2)C[C@@](C)(CO)C(=O)O)nn1` [Example 4B, (2S,4R)-5-(5′-Chloro-2′-fluorobiphenyl-4-yl)-2-hydroxymethyl-4-[(1-methoxy-1H-[1.2.3]triazole-4-carbonyl)amino]-2-methylpentanoic Acid], at most 1 nM.
